This passage reports TGI and GI50 results from PubChem BioAssay (NCI).

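Assay format: 96-well plates, 48-hour exposure. The concentration for 50% growth inhibition is given as GI50. TGI: concentration producing complete growth inhibition.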 Some results are limits rather than exact numbers.

Some test systems named below: KM12 colon; SK-MEL-2 melanoma; LXFL 529 NSCLC; SNB-78 CNS; HL-60(TB) leukemia; HCT-116 colon; KM20L2 colon; M14 melanoma; PC-3 prostate; MCF7 breast.
What all share (assay): growth of human tumour cells (NCI), 48 h

Consider `O=C1N=C2N=C(c3ccc(Cl)cc3)N(c3ccc(Cl)cc3)N2Sc2ccccc21`, for which the TGI with KM12 colon, with SK-MEL-2 melanoma, in the experiment on LXFL 529 NSCLC, in the experiment on SNB-78 CNS, in the experiment with HL-60(TB) leukemia and in the experiment on HCT-116 colon was more than 100 µM in each case. Besides, the TGI in the experiment on KM20L2 colon and in the experiment on M14 melanoma was more than 100 µM each time.

In the case of `O=C(C#Cc1ccccc1)NC/C=C/c1ccccc1`, the TGI in the experiment with KM12 colon is more than 100 µM; in the experiment with SK-MEL-2 melanoma it was 97.4 µM; with LXFL 529 NSCLC, more than 100 µM; in the experiment on SNB-78 CNS, 84.1 µM; with HL-60(TB) leukemia it was 58.1 µM; in the experiment with HCT-116 colon, more than 100 µM. Also, the TGI with KM20L2 colon and in the experiment with M14 melanoma was more than 100 µM each time.

For `CCOC(=O)C(Cc1cc(OC)c(CC(C(=O)OCC)C(=O)OCC)cc1OC)C(=O)OCC`, the TGI in the experiment with KM12 colon, with SK-MEL-2 melanoma, with LXFL 529 NSCLC, in the experiment with PC-3 prostate, with SNB-78 CNS and in the experiment on MCF7 breast was more than 100 µM throughout. Besides, the TGI in the experiment on HL-60(TB) leukemia, with HCT-116 colon, in the experiment with KM20L2 colon and with M14 melanoma was more than 100 µM in each case.

For `C[C@]12CC[C@H](OC(=O)Nc3ccccc3)CC1=CC[C@@H]1C2CC[C@]2(C)/C(=N/OC(=O)Nc3ccccc3)CCC12` (some centres undefined), the TGI with KM12 colon is more than 100 µM; with SK-MEL-2 melanoma, more than 100 µM; with LXFL 529 NSCLC it was 2.52 µM; with SNB-78 CNS, more than 100 µM; in the experiment with HL-60(TB) leukemia, more than 100 µM; with HCT-116 colon it was more than 100 µM. Also, the TGI in the experiment on KM20L2 colon and in the experiment on M14 melanoma was more than 100 µM throughout.

Consider `O=C(Cc1nc2ccccc2s1)C(=O)Nc1cccc(C(F)(F)F)c1`, for which the TGI with KM12 colon, in the experiment with SK-MEL-2 melanoma, in the experiment on LXFL 529 NSCLC, in the experiment with SNB-78 CNS, in the experiment on HL-60(TB) leukemia and with HCT-116 colon was more than 100 µM throughout. In addition, the TGI with KM20L2 colon and in the experiment on M14 melanoma was more than 100 µM in each case.

For the compound `COC(OC)c1cccnc1C`, the TGI with KM12 colon, in the experiment on SK-MEL-2 melanoma, in the experiment with LXFL 529 NSCLC, in the experiment with SNB-78 CNS, in the experiment on HL-60(TB) leukemia and in the experiment with HCT-116 colon was more than 100 µM in each case. Also, the TGI in the experiment on KM20L2 colon and in the experiment on M14 melanoma was more than 100 µM each time.

Take `O=C1C(=O)N(c2cc(Cl)ccc2Cl)C(=O)C(=O)C1c1nc2ccccc2s1`: the TGI in the experiment on KM12 colon, in the experiment on SK-MEL-2 melanoma, in the experiment on LXFL 529 NSCLC, in the experiment on SNB-78 CNS, in the experiment on HL-60(TB) leukemia and in the experiment on HCT-116 colon was more than 100 µM throughout. Moreover, the TGI in the experiment with KM20L2 colon and with M14 melanoma was more than 100 µM each time.

As for `O=C(O)C1CC2C=CCC(C2)C1` (centres undefined), the TGI in the experiment with KM12 colon, in the experiment on SK-MEL-2 melanoma, in the experiment with LXFL 529 NSCLC, in the experiment on SNB-78 CNS, with HL-60(TB) leukemia and in the experiment on HCT-116 colon was more than 100 µM each time. Moreover, the TGI in the experiment on KM20L2 colon and in the experiment with M14 melanoma was more than 100 µM throughout.

Regarding `N.N.N.N.O=S([O-])[O-].[Co+3].[N-]=[N+]=[N-]`, the GI50 with KM12 colon, in the experiment with SK-MEL-2 melanoma, with LXFL 529 NSCLC, in the experiment on SNB-78 CNS, in the experiment with HL-60(TB) leukemia and in the experiment on HCT-116 colon was more than 100 µM each time. Further, the GI50 with KM20L2 colon and in the experiment on M14 melanoma was more than 100 µM in each case. For the same compound, the TGI in the experiment with KM12 colon, in the experiment with SK-MEL-2 melanoma, in the experiment on LXFL 529 NSCLC, in the experiment with SNB-78 CNS, in the experiment on HL-60(TB) leukemia and in the experiment with HCT-116 colon was more than 100 µM each time. Moreover, the TGI in the experiment on KM20L2 colon and in the experiment on M14 melanoma was more than 100 µM throughout.

Take `CCNC(=O)COc1ccc(Cl)c(C)c1`: the TGI with KM12 colon, in the experiment on SK-MEL-2 melanoma, in the experiment with LXFL 529 NSCLC, with SNB-78 CNS, in the experiment on HL-60(TB) leukemia and in the experiment on HCT-116 colon was more than 100 µM throughout. Also, the TGI in the experiment with KM20L2 colon and with M14 melanoma was more than 100 µM throughout.

On to `Cc1nc(Nc2ccc(Cl)cc2)sc1C(=O)Nc1cccc2c(=O)[nH][nH]c(=O)c12`, for which the TGI in the experiment on KM12 colon is more than 100 µM; in the experiment with SK-MEL-2 melanoma it was more than 100 µM; in the experiment with LXFL 529 NSCLC it was 86.6 µM; with SNB-78 CNS it was more than 100 µM; in the experiment with HL-60(TB) leukemia it was 45.2 µM; in the experiment with HCT-116 colon it was more than 100 µM. Further, the TGI in the experiment with KM20L2 colon worked out at 41.2 µM; in the experiment with M14 melanoma, 86.2 µM.

As to `O=C(NCCCN1CCN(CCCNC(=O)Nc2cc(Cl)ccc2Cl)CC1)Nc1cc(Cl)ccc1Cl`, the TGI in the experiment with KM12 colon, in the experiment with SK-MEL-2 melanoma, in the experiment with LXFL 529 NSCLC, in the experiment on SNB-78 CNS, with HL-60(TB) leukemia and in the experiment on HCT-116 colon was more than 100 µM throughout. The TGI with KM20L2 colon and in the experiment with M14 melanoma was more than 100 µM in each case.

In the case of `O=S1(=O)CCC2=CC(C(F)(F)F)=CC(C(F)(F)F)=CN21`, the TGI with KM12 colon was found to be 3.54 µM; in the experiment on SK-MEL-2 melanoma, 4.1 µM; in the experiment on LXFL 529 NSCLC, 1.6 µM; in the experiment with PC-3 prostate it was 5.91 µM; in the experiment on SNB-78 CNS, 6.49 µM; in the experiment on HL-60(TB) leukemia it was 3.9 µM. For the same compound, the TGI with HCT-116 colon is 0.712 µM; with KM20L2 colon it was 5.25 µM; with M14 melanoma it was 2.03 µM.

`BrCc1ccc2ccc3ccc(CBr)nc3c2n1`: the TGI with KM12 colon was 14.7 µM; with SK-MEL-2 melanoma, 15 µM; in the experiment on LXFL 529 NSCLC it was 3.19 µM; with PC-3 prostate, 5.75 µM; in the experiment with SNB-78 CNS, 4.43 µM; with MCF7 breast, 4.87 µM. In addition, the TGI came out at 5.28 µM in the experiment with HL-60(TB) leukemia, 6.7 µM in the experiment on HCT-116 colon, 29.3 µM in the experiment on KM20L2 colon and 8.79 µM in the experiment with M14 melanoma.

Take `CCOC(=O)NN1C(=O)C(=P(c2ccccc2)(c2ccccc2)c2ccccc2)C(C(=O)OC)=C1C`: the TGI with KM12 colon, in the experiment on SK-MEL-2 melanoma, in the experiment with LXFL 529 NSCLC, in the experiment on SNB-78 CNS, in the experiment on HL-60(TB) leukemia and in the experiment with HCT-116 colon was more than 100 µM each time. For the same compound, the TGI in the experiment on KM20L2 colon and in the experiment on M14 melanoma was more than 100 µM throughout.

Consider `O=C1C=C(NCCc2ccccc2)c2ccccc2C1=O`, for which the TGI in the experiment with KM12 colon stood at 8.72 µM; in the experiment with SK-MEL-2 melanoma it was 5.18 µM; in the experiment with LXFL 529 NSCLC it was 19.1 µM; with PC-3 prostate, 26.2 µM; with SNB-78 CNS, 42.8 µM; in the experiment with MCF7 breast, 3.34 µM. The TGI in the experiment with HL-60(TB) leukemia was 13.6 µM; in the experiment on HCT-116 colon, 18 µM; in the experiment on KM20L2 colon, 18.7 µM; in the experiment with M14 melanoma it was 2.99 µM.

As for `COC(=O)C1=C(O)c2cc(OC)c(OC)c(OC)c2C(c2ccc3c(c2)OCO3)[C@@H]1C(=O)OC` (some centres undefined), the TGI in the experiment on KM12 colon is more than 100 µM; in the experiment on SK-MEL-2 melanoma, more than 100 µM; in the experiment with LXFL 529 NSCLC it was more than 100 µM; with SNB-78 CNS, more than 100 µM; in the experiment on HL-60(TB) leukemia, 5.49 µM; in the experiment with HCT-116 colon, more than 100 µM. Further, the TGI came out at 6.43 µM in the experiment with KM20L2 colon and 10.7 µM with M14 melanoma.

With `CC(NC1CCCC[C@@H]1O)c1ccccc1` (some centres undefined), the TGI in the experiment with KM12 colon, in the experiment on SK-MEL-2 melanoma, in the experiment on LXFL 529 NSCLC, in the experiment with SNB-78 CNS, in the experiment on HL-60(TB) leukemia and with HCT-116 colon was more than 100 µM in each case. In addition, the TGI with KM20L2 colon and with M14 melanoma was more than 100 µM throughout.
